Assays:
velvetleaf [1] = test: Test A postemergence; assay type: in vivo, Abutilon theophrasti; settings: 0 to 100 scale where 0 is no effect and 100 is complete control
In short: (§1)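 Greenhouse pot test, loam/sand soil. Formulation: non-phytotoxic solvent mix plus surfactant. Pre: directed spray onto soil after sowing. Post: plants at 1–2 leaf, 2–10 cm. Rated visually vs untreated controls at ~10 d, 0 (no effect) to 100 (complete control).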

johnsongrass = test: Test C postemergence; assay type: in vivo, Sorghum halepense
In short: (§2)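 Preemergence: seeds sown in a loam soil–sand blend and sprayed with test chemical in a non-phytotoxic solvent mixture containing surfactant. Postemergence: plants at 2 to 18 cm (1- to 4-leaf stage) in peat-based medium, treated with the same formulation. Greenhouse 13 to 15 days, then visual rating 0 (no effect) to 100 (complete control).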

kochia = test: Test C postemergence; assay type: in vivo, Kochia scoparia
In short: as §2

wild oat = test: Test C postemergence; assay type: in vivo, Avena fatua
In short: as §2

barnyardgrass = test: Test C postemergence; assay type: in vivo, Echinochloa crus-galli
In short: as §2

soybean = test: Test C postemergence; assay type: in vivo, Glycine max
In short: as §2

pigweed [2] = test: Test A postemergence; assay type: in vivo, Amaranthus retroflexus; settings: 0 to 100 scale where 0 is no effect and 100 is complete control
In short: as §1

corn [3] = test: Test A postemergence; assay type: in vivo, Zea mays; settings: 0 to 100 scale where 0 is no effect and 100 is complete control
In short: as §1

morningglory = test: Test A postemergence; assay type: in vivo, Ipomoea spp.; settings: 0 to 100 scale where 0 is no effect and 100 is complete control
In short: as §1

large (Lg) crabgrass [4] = test: Test A preemergence; assay type: in vivo, Digitaria sanguinalis
In short: as §1

waterhemp = test: Test C postemergence; assay type: in vivo, Amaranthus rudis
In short: as §2

Italian ryegrass = test: Test C postemergence; assay type: in vivo, Lolium multiflorum
In short: as §2

corn [5] = test: Test C postemergence; assay type: in vivo, Zea mays
In short: as §2

large (Lg) crabgrass [6] = test: Test A postemergence; assay type: in vivo, Digitaria sanguinalis; settings: 0 to 100 scale where 0 is no effect and 100 is complete control
In short: as §1

velvetleaf [7] = test: Test A preemergence; assay type: in vivo, Abutilon theophrasti
In short: as §1

giant foxtail = test: Test C postemergence; assay type: in vivo, Setaria faberii
In short: as §2

pigweed [8] = test: Test A preemergence; assay type: in vivo, Amaranthus retroflexus
In short: as §1

pigweed [9] = test: Test C postemergence; assay type: in vivo, Amaranthus retroflexus
In short: as §2

[10] = 16 g ai/ha, postemergence, 0 is no effect, 100 is complete control
[11] = 31 g ai/ha, postemergence, visual rating, scale 0 to 100 (0 no effect, 100 complete control), 13 to 15 days
[12] = 125 g ai/ha, postemergence, visual rating, scale 0 to 100 (0 no effect, 100 complete control)
[13] = Postemergence, 62 g ai/ha, scale 0 to 100 (0 no effect, 100 complete control), 13 to 15 days
[14] = 500 g ai/ha, 0 to 100 scale where 0 is no effect and 100 is complete control

Fc1cnc(Oc2ccccc2-n2cc(C(F)F)cn2)nc1 [Compound 228]
Velvetleaf plant response rating (velvetleaf [1]; 125 g ai/ha): 100
Plant response rating, Velvetleaf (velvetleaf [1]; 500 g ai/ha): 100
Plant response rating (0 to 100), Johnsongrass (johnsongrass; [10]): 5
Johnsongrass plant response rating (johnsongrass; [11]): 0
Plant response rating, Johnsongrass (johnsongrass; [12]): 10
Plant response rating, Johnsongrass (johnsongrass; [13]): 5
Plant response rating (0 to 100), Kochia (kochia; [10]): 30
Kochia plant response rating (kochia; [11]): 60
Plant response rating, Kochia (kochia; [12]): 85
Plant response rating, Kochia (kochia; [13]): 80
Plant response rating (0 to 100), Oat, Wild (wild oat; [10]): 0
Oat, Wild plant response rating (wild oat; [11]): 0
Plant response rating, Oat, Wild (wild oat; [12]): 5
Plant response rating, Oat, Wild (wild oat; [13]): 0
Plant response rating (0 to 100), Barnyardgrass (barnyardgrass; [10]): 0
Barnyardgrass plant response rating (barnyardgrass; [11]): 0
Plant response rating, Barnyardgrass (barnyardgrass; [12]): 5
Plant response rating, Barnyardgrass (barnyardgrass; Postemergence, 62 g ai/ha, scale 0 to 100 (0 no effect, 100 complete control)): 5
Plant response rating (0 to 100), Soybean (soybean; [10]): 25
Soybean plant response rating (soybean; [11]): 35
Plant response rating, Soybean (soybean; [12]): 80
Plant response rating, Soybean (soybean; [13]): 60
Pigweed plant response rating (pigweed [2]; 125 g ai/ha): 100
Plant response rating, Pigweed (pigweed [2]; 500 g ai/ha): 100
Corn plant response rating (corn [3]; 125 g ai/ha): 50
Plant response rating, Corn (corn [3]; 500 g ai/ha): 10
Morningglory plant response rating (morningglory; 125 g ai/ha): 80
Plant response rating, Morningglory (morningglory; 500 g ai/ha): 100
Crabgrass, Large plant response rating (0 to 100 scale) (large (Lg) crabgrass [4]; 125 g ai/ha): 90
Crabgrass, Large plant response rating (large (Lg) crabgrass [4]; [14]): 100
Plant response rating (0 to 100), Waterhemp (waterhemp; [10]): 15
Waterhemp plant response rating (waterhemp; [11]): 45
Plant response rating, Waterhemp (waterhemp; [12]): 75
Plant response rating, Waterhemp (waterhemp; [13]): 60
Plant response rating (0 to 100), Ryegrass, Italian (Italian ryegrass; [10]): 0
Ryegrass, Italian plant response rating (Italian ryegrass; [11]): 0
Plant response rating, Ryegrass, Italian (Italian ryegrass; [12]): 10
Plant response rating, Ryegrass, Italian (Italian ryegrass; [13]): 0
Plant response rating (0 to 100), Corn (corn [5]; [10]): 0
Corn plant response rating (corn [5]; [11]): 0
Plant response rating, Corn (corn [5]; [12]): 5
Plant response rating, Corn (corn [5]; [13]): 0
Crabgrass, Large plant response rating (large (Lg) crabgrass [6]; 125 g ai/ha): 40
Plant response rating, Crabgrass, Large (large (Lg) crabgrass [6]; 500 g ai/ha): 90
Velvetleaf plant response rating (0 to 100 scale) (velvetleaf [7]; 125 g ai/ha): 70
Velvetleaf plant response rating (velvetleaf [7]; [14]): 100
Plant response rating (0 to 100), Foxtail, Giant (giant foxtail; [10]): 0
Foxtail, Giant plant response rating (giant foxtail; [11]): 0
Plant response rating, Foxtail, Giant (giant foxtail; [12]): 5
Plant response rating, Foxtail, Giant (giant foxtail; [13]): 0
Pigweed plant response rating (0 to 100 scale) (pigweed [8]; 125 g ai/ha): 0
Pigweed plant response rating (pigweed [8]; [14]): 0
Plant response rating (0 to 100), Pigweed (pigweed [9]; [10]): 25
Pigweed plant response rating (pigweed [9]; [11]): 50
Plant response rating, Pigweed (pigweed [9]; [12]): 55
Plant response rating, Pigweed (pigweed [9]; [13]): 60

Reference: patent US9695155B2, “Herbicidal substituted pyrimidinyloxy benzene compounds” (E. I. DU PONT DE NEMOURS AND COMPANY, priority 2013, dated 2017)
